Experimental data as given in patent US10638757B2, “Formulation systems for antimicrobial glycolipids” (IMD Natural Solutions GmbH, priority 2016, dated 2020).
“Also recorded” adds a separate entry of the source.

What was measured:
[1] = Influence of the additives on the MIC of a mixture of antimicrobial glycolipids (qualitative); assay type: cell-based; settings: additive 1 mg/ml
Description: In addition, the influence of the additives on the MIC of a mixture of antimicrobial glycolipids is described qualitatively.

[2] = Comparison of alpha-cyclodextrin with Polysorbate 60: practicability in application in beverages and reliability in use; settings: compared with polysorbates
Text: The preferred formulation stabilizers polysorbates and cyclodextrins have been further investigated towards their practicability in application in beverages as well as their reliability in use.

[3] = Visual control of compatibility (turbidity, particles, precipitate) of beverages containing mixture of antimicrobial glycolipids with or without formulation stabilizer
Description: All experiments done and reported in duplicate.
Portions of about 50 mL each for the two beverages, “Gerolstetner Orangenlimonade” (turbid orange lemonade, de-gassed; cloudy beverage) and “REWE Apfelsaft” (clear apple juice, sterile filtered; clear beverage), were mixed with aliquots of a mixture of antimicrobial glycolipids and alpha-cyclodextrin as to establish the depicted nine combinations of concentrations (4-2 to 4-4 and 4-6 to 4-11, respectively); two control solutions with neither adding a mixture of antimicrobial glycolipids nor alpha-cyclodextrin were run in parallel (4-1 and 4-5, respectively).
However, for the concentration of 10 μg/ml of mixture of antimicrobial glycolipids three combination with alpha-cyclodextrin, 25 (6-1, 6-2, 6-9, 6-10, 6-17, 6-18), 75 (6-3, 6-4, 6-11, 6-12, 6-19, 6-20) and 100 μg/ml (6-5, 6-6, 6-13, 6-14, 6-21, 6-22) and for the concentration of 25 μg/ml of mixture of antimicrobial glycolipids only 100 μg/ml alpha-cyclodextrin (6-7, 6-8, 6-15, 6-16, 6-23, 6-24) was used all with two test points, respectively.
2×50 mL portion of the four solutions in the Erlenmeyer flasks were poured into clear and sterile polystyrol conical tubes and sealed for investigation of stability and compatibility of such beverages at three different temperatures (6/20/40° C.) each, resulting in four tubes per temperature and beverage. Such 24 tubes were stored for seven days and observed at day 0, 3 and 7 by measurement of turbidity as well as by optical inspection. A control solution without adding any components was run in parallel.
Portions of about 50 mL each for the three beverages, “Gerolsteiner Orangenlimonade” (orange lemonade, de-gassed, cloudy beverage), “Kastell Zitronensprudel” (citrus lemonade, sterile filtered, clear beverage), and “REWE Apfelsaft” (clear apple juice, sterile filtered, clear beverage), were mixed with aliquots of a mixture of antimicrobial glycolipids as to establish the nine test solutions; three control solutions without adding a mixture of antimicrobial glycolipids were ran in parallel: […]

[4] = Screening of additives as formulation stabilizers in combination with a mixture of antimicrobial glycolipids in water based formulations (turbidity, qualitative overview)
Description: As to identify formulation stabilizer a screening was conducted in which additives typically used in food, cosmetic or medical applications were combined with a mixture of antimicrobial glycolipids in a water based formulation. A rather high concentration of 1000 mg/l for the formulation enhancing agents was used as to not miss potential effects whereas the mixture of antimicrobial glycolipids was applied in typical use concentrations, i.e. 5, 10 and 25 μg/ml.
Portions of about 50 mL each for two beverages. “Gerolsteiner Orangenlimonade” (turbid orange lemonade, de-gassed; cloudy beverage) and “REWE Apfelsaft” (clear apple juice, sterile filtered; clear beverage) as well as for 10 mM citrate buffer is water (pH 3.0), were mixed each with aliquots of a mixture of antimicrobial glycolipids and the respective additives as to establish for each individually screened additive three combinations of concentrations (1000 μg/ml (with few exceptions as listed below) additive with 5, 10 and 25 μg/ml mixture of antimicrobial glycolipids, respectively); three controls with neither adding a mixture of antimicrobial glycolipids nor additive were run in parallel.
The necessary aliquots of a mixture of antimicrobial glycolipids were transferred from an aqueous stock solution containing 1 mg/ml mixture of antimicrobial glycolipids into the nine test solutions prepared for each additive.
The necessary aliquots of additives were transferred directly into the 50 mL portions.
For measurement of the turbidity the turbidity infrared device AL250T-IR from […]® was used. It was measured at three time points: day 0, 3, 7. All test samples were stored and handled at room temperature.

[5] = additive 1 mg/ml, independent of glycolipid mixture

Compound: O=C(O)CN(CCN(CC(=O)O)CC(=O)O)CC(=O)O [EDTA]
- Effect on MIC [1]: Impr.

Compound: OC[C@H]1O[C@@H]2O[C@H]3[C@H](O)[C@@H](O)[C@@H](O[C@H]4[C@H](O)[C@@H](O)[C@@H](O[C@H]5[C@H](O)[C@@H](O)[C@@H](O[C@H]6[C@H](O)[C@@H](O)[C@@H](O[C@H]7[C@H](O)[C@@H](O)[C@@H](O[C@H]1[C@H](O)[C@H]2O)O[C@@H]7CO)O[C@@H]6CO)O[C@@H]5CO)O[C@@H]4CO)O[C@@H]3CO [alpha-cyclodextrin]
- overall rating as broadly applicable and reliable formulation stabilizer [2]: superior
- alpha-cyclodextrin concentration avoiding lack of compatibility ([3]; 10 μg/ml mixture of antimicrobial glycolipids in apple juice at 4° C.): 75 µg/mL
- alpha-cyclodextrin concentration needed to avoid lack of compatibility ([3]; 10 μg/ml mixture of antimicrobial glycolipids in apple juice at 40° C.): 100 µg/mL
- duration of improvement of compatibility ([3]; alpha-cyclodextrin with 10 μg/ml mixture of antimicrobial glycolipids, apple juice): > 28 days

Compound: OC[C@H]1O[C@@H]2O[C@H]3[C@H](O)[C@@H](O)[C@@H](O[C@H]4[C@H](O)[C@@H](O)[C@@H](O[C@H]5[C@H](O)[C@@H](O)[C@@H](O[C@H]6[C@H](O)[C@@H](O)[C@@H](O[C@H]7[C@H](O)[C@@H](O)[C@@H](O[C@H]8[C@H](O)[C@@H](O)[C@@H](O[C@H]9[C@H](O)[C@@H](O)[C@@H](O[C@H]1[C@H](O)[C@H]2O)O[C@@H]9CO)O[C@@H]8CO)O[C@@H]7CO)O[C@@H]6CO)O[C@@H]5CO)O[C@@H]4CO)O[C@@H]3CO [gamma cyclodextrin]
- beneficial effects as formulation stabilizer for antimicrobial glycolipids [3]: less pronounced beneficial effects

Compound: Sorbitan monostearate
- Effect of additive itself on water based product ([4]; additive 0.1 mg/ml): Weakly soluble

Compound: polyoxyethylene-(20)-sorbitane monolaurate [Polysorbate 20]
- Effect of additive itself on water based product [4, 5]: Not compatible with apple juice.

Compound: polyoxyethylene-(20)-sorbitane monooleate [Polysorbate 80]
- Effect of additive itself on water based product [4, 5]: Increase of turbidity; also recorded: Not compatible with apple juice

Compound: polyoxyethylene-(20)-sorbitane monostearate [Polysorbate 60]
- Effect of additive itself on water based product [4, 5]: Not compatible with apple juice.
